For eleven compounds, IC50 results are on record in patent US20150175651A1, “NEUROACTIVE STEROIDS, COMPOSITIONS, AND USES THEREOF” (SAGE THERAPEUTICS, INC., priority 2012, published 2015).

The experiment addresses GABA receptor complex (GRC), [35S]-TBPS binding in rat brain cortical membranes. Description: Steroid inhibition of [35S]-TBPS binding (radioligand displacement). Particulars: 2 nM [35S]-TBPS, in the presence of 5 μM GABA, read-out: 35S-TBPS Radioligand Displacement (Control IC50). On the procedure: TBPS binding assays using rat brain cortical membranes in the presence of 5 μM GABA has been described (Gee et al, J. Pharmacol. Exp. Ther. 1987, 241, 346-353; Hawkinson et al, Mol. Pharmacol. 1994, 46, 977-985).
Briefly, cortices are rapidly removed following decapitation of carbon dioxide-anesthetized Sprague-Dawley rats (200-250 g). The cortices are homogenized in 10 volumes of ice-cold 0.32 M sucrose using a glass/teflon homogenizer and centrifuged at 1500×g for 10 min at 4° C. The resultant supernatants are centrifuged at 10,000×g for 20 min at 4° C. to obtain the P2 pellets. The P2 pellets are resuspended in 200 mM NaCl/50 mM Na—K phosphate pH 7.4 buffer and centrifuged at 10,000×g for 10 min at 4 OC. This ishing procedure is repeated twice and the pellets are resuspended in 10 volumes of buffer. Aliquots (100 μL) of the membrane suspensions are incubated with 2 nM [^35S]-TBPS and 5 μL, aliquots of test drug dissolved in dimethyl sulfoxide (DMSO) (final 0.5%) in the presence of 5 μM GABA. The incubation is brought to a final volume of 1.0 mL with buffer. Nonspecific binding is determined in the presence of 2 μM unlabeled TBPS and ranged from 15 to 25%. Following a 90 min incubation at room temp, the assays are terminated by filtration through glass fiber filters (Schleicher and Schuell No. 32) using a cell harvester (Brandel) and rinsed three times with ice-cold buffer. Filter bound radioactivity is measured by liquid scintillation spectrometry. Non-linear curve fitting of the overall data for each drug averaged for each concentration is done using Prism (GraphPad). […] The concentration of test compound producing 50% inhibition (IC50) of specific binding and the maximal extent of inhibition (Imax) are determined for the individual experiments with the same model used for the overall data and then the means+SEM.s of the individual experiments are calculated.
Various compounds are or can be screened to determine their potential as modulators of [^35S]-TBPS binding in vitro. These assays are or can be performed in accordance with the above discussed procedures.

The structures appear in SMILES notation.

What is called IC50 is the concentration that inhibits the measured activity by half. Take `CC(=O)O[C@H]1C[C@@]2(C)[C@@H](CC[C@@H]3[C@@H]2CC[C@]2(C)/C(=C\C#N)CC[C@@H]32)C[C@@H]1O` [Compound 1, (2S,3S,5S,8R,9S,10S,13S,14S,Z)-17-(cyanomethylene)-3-hydroxy-10,13-dimethyl-hexadecahydro-1H-cyclopenta[a]phenanthren-2-yl acetate]: the half-maximal inhibitory concentration (IC50) lay in the range of 100 to 500 nM.

For the compound `C[C@]12C[C@H](OC(=O)c3ccccc3)[C@@H](O)C[C@@H]1CC[C@@H]1[C@@H]2CC[C@]2(C)[C@@H](C(=O)CO)CC[C@@H]12` [Compound 2, (2S,3S,5S,8R,9S,10S,13S,14S,17S)-3-hydroxy-17-(2-hydroxyacetyl)-10,13-dimethyl-hexadecahydro-1H-cyclopenta[a]phenanthren-2-yl benzoate], the half-maximal inhibitory concentration (IC50) was in the range of 100 to 500 nM.

Take `CC(=O)O[C@H]1C[C@@H]2[C@H](CC[C@]3(C)/C(=C\C#N)CC[C@@H]23)[C@@]2(C)CC[C@@H](O)C[C@H]12` [Compound 3, (3R,5S,6S,8R,9S,10R,13S,14S,Z)-17-(cyanomethylene)-3-hydroxy-10,13-dimethyl-hexadecahydro-1H-cyclopenta[a]phenanthren-6-yl acetate]: the IC50 fell in the range of 100 to 500 nM.

Consider `CC(=O)O[C@H]1C[C@]2(C)/C(=C\C#N)CC[C@H]2[C@@H]2CC[C@H]3C[C@H](O)CC[C@]3(C)[C@H]21` [Compound 4, (3R,5S,8S,9S,10S,11S,13S,14S,Z)-17-(cyanomethylene)-3-hydroxy-10,13-dimethyl-hexadecahydro-1H-cyclopenta[a]phenanthren-11-yl acetate], for which the IC50 is 100 to 500 nM.

As for `CC(=O)OC[C@]12CC[C@@H](O)C[C@@H]1CC[C@@H]1[C@@H]2CC[C@]2(C)/C(=C\C#N)CC[C@@H]12` [Compound 5, ((3R,5S,8S,9S,10R,13S,14S,Z)-17-(cyanomethylene)-3-hydroxy-13-methyl-hexadecahydro-1H-cyclopenta[a]phenanthren-10-yl)methyl acetate], the IC50 was 100 to 500 nM.

On to `CC(=O)O[C@H]1C[C@@]2(C)[C@@H](CC[C@@H]3[C@@H]2CC[C@]2(C)[C@@H](C(=O)CO)CC[C@@H]32)C[C@@H]1O` [Compound 6], for which the IC50 lay in the range of 100 to 500 nM.

For `CC(=O)O[C@H]1C[C@]2(C)[C@@H](C(=O)CO)CC[C@H]2[C@@H]2CC[C@H]3C[C@H](O)CC[C@]3(C)[C@H]21` [Compound 7, (3R,5S,8S,9S,10S,11S,13S,14S,17S)-3-hydroxy-17-(2-hydroxyacetyl)-10,13-dimethyl-hexadecahydro-1H-cyclopenta[a]phenanthren-11-yl acetate], the IC50 was 100 to 500 nM.

With `CC(=O)O[C@H]1C[C@@H]2[C@H](CC[C@]3(C)[C@@H](C(C)=O)CC[C@@H]23)[C@@]2(C)CC[C@@H](O)C[C@H]12` [Compound 8, (3R,5S,6S,8R,9S,10R,13S,14S,17S)-17-acetyl-3-hydroxy-10,13-dimethyl-hexadecahydro-1H-cyclopenta[a]phenanthren-6-yl acetate], the IC50 fell in the range of 100 to 500 nM.

For the compound `CC(=O)O[C@H]1C[C@@H]2[C@H](CC[C@]3(C)[C@@H](C(=O)CO)CC[C@@H]23)[C@@]2(C)CC[C@@H](O)C[C@H]12` [Compound 9, (3R,5S,6S,8R,9S,10R,13S,14S,17S)-3-hydroxy-17-(2-hydroxyacetyl)-10,13-dimethyl-hexadecahydro-1H-cyclopenta[a]phenanthren-6-yl acetate], the IC50 lay within 100 to 500 nM.

Consider `CC(=O)OC1CC2(C)C(=CC#N)CCC2C2CCC3CC(O)CCC3C12` (centres unmarked) [Compound 11], for which the IC50 lay in the range of 100 to 500 nM.

Consider `CO[C@H]1CC[C@H]2[C@@H]3CC[C@H]4C[C@H](O)CC[C@]4(COC(C)=O)[C@H]3CC[C@]12C` [Compound 13], for which the IC50 is 100 to 500 nM.
